Measurements taken from PMC12040169 (PLOS Biology, 2025).

Test: in vitro
Conditions: human, hela cells, % viability

| Compound | viability at 28.5 h, 10 µM [%] |
| --- | --- |
| Cc1ccc(NC(=O)N(Cc2ccc(-c3ccccc3)cc2)CC(C)(C)CN)cc1[N+](=O)[O-] [CBK002439C] | 83.7 |
| COC(=O)c1ccc(S(=O)(=O)C(F)(F)F)cc1N [CBK018172] | 114 |
| CC(C)(C)NC(=O)Cn1ccc2ccnc(-c3cccs3)c21 [CBK284737] | 94.1 |
| CN1CCN(C(=O)c2ccc(-c3cnc4[nH]c(=O)n(CCN5CCOCC5)c4n3)cc2)CC1 [CBK064800] | 114 |
| O=c1[nH]c(=O)c2cc(S(=O)(=O)N3CCCC(CN4CCCC4)C3)ccc2[nH]1 (stereo not shown) [CBK286392] | 88.8 |
| CCOc1cccc(CNc2ccc(N3CCOCC3)c(C(=O)O)c2)c1 [CBK269973] | 92.9 |
| Cc1nc(C(=O)N(CCO)Cc2ccccc2)cs1 [CBK304810] | 105 |
| Cc1cc(C[C@@H]2CCC[C@H]2NCc2c(C)nn(C(C)C)c2C)on1 [CBK285453] | 98.3 |
| Nc1ncc(-c2ccc(C(=O)N3CCOCC3)cc2)nc1-c1ccc(CCC(=O)O)cc1 [CBK126368] | 97.3 |
| Cc1cnc(COC(=O)N2C[C@@H](C)O[C@@H](C)C2)cn1 [CBK200124] | 81.4 |
| O=C(c1cnc2ccccc2c1)N1CCc2ccccc21 [CBK200284] | 77.7 |
| O=C(Cn1ncc2cccn2c1=O)Nc1cccc(F)c1 [CBK283702] | 89.8 |
| Cc1cc(CC(=O)N2CCN(c3ncccn3)CC2)on1 [CBK144507] | 90 |
| Fc1ccc(CN2CCC3(C2)c2[nH]c4ccccc4c2CCN3Cc2ccc(F)cc2)cc1 (stereo not shown) [CBK059467] | 85.8 |
| Cc1nc2ccccc2c(SCCC(=O)O)c1Cc1ccccc1 [CBK144942T] | 88.9 |
| Nc1nccc(-c2cc(OCC(F)(F)F)ccc2OCC(F)(F)F)n1 [CBK005948] | 94.6 |
| Cc1ccc(CN(Cc2cncn2C)C2CC(C)(C)NC(C)(C)C2)o1 [CBK283192] | 103 |
| Cc1nc(NS(=O)(=O)c2ccc(Oc3ccccc3)cc2)sc1C(=O)O [CBK045566] | 107 |
| CCCN1C[C@H](NC(=O)C2CC2)[C@@H](c2ccc(OC)cc2)C1 [CBK282518] | 116 |
| COCc1nnc(Sc2nccnc2NC(C)C)s1 [CBK115204] | 99.6 |
| O=c1c(N2CCC(Sc3ccccc3)CC2)nccn1Cc1ccc(OC(F)(F)F)cc1 [CBK155257] | 94.7 |

| Compound | viability at 28.5 h, 10 µM [%] |
| --- | --- |
| CC(C)(C)c1ccc(C(=O)CC(C(=O)O)N2CCN(c3cccc(Cl)c3)CC2)cc1 (stereo not shown) [CBK077385] | 90.9 |
| O=C1c2cc(S(=O)(=O)NCc3ccco3)ccc2-c2ccc(S(=O)(=O)NCc3ccco3)cc21 [CBK262250] | 98.5 |
| O=C(O)c1ccc(CNCc2ccc(-c3ccc(F)cc3)o2)cc1 [CBK269622C] | 90.9 |
| c1cc(CCCOc2cncc(N3CCCC3)n2)ccn1 [CBK115760] | 85.3 |
| Cc1ccc(S(=O)(=O)Nc2ccc(S(=O)(=O)Nc3nccs3)cc2)c([N+](=O)[O-])c1 [CBK267410] | 85.9 |
| COc1cc(F)ccc1-c1ccnc2[nH]c(=O)ccc12 [CBK073727] | 74.2 |
| CCn1c2ccccc2c2cc(NC(=O)C(C)Sc3n[nH]c(=O)n3C3CC3)ccc21 (stereo not shown) [CBK296636] | 107 |
| C[C@@H]1C(=O)O[C@H]2[C@H]1CC[C@@]1(C)Cc3sc(NC(=O)CCC(=O)O)nc3[C@@H](C)[C@H]21 [CBK289429] | 98.7 |
| CN(C)CC(O)CN1C(=O)NC(C)(C)C1=O (stereo not shown) [CBK027078] | 114 |
| Cc1ccccc1NC(=O)Cn1cnc2c(cnn2-c2ccccc2)c1=O [CBK287530] | 104 |
| CC(C)c1nccn1CCCNC(=O)N1CCCC(c2ccncn2)C1 (stereo not shown) [CBK307448] | 88.7 |
| CN(Cc1ccc(CN2CCOC(c3ccccc3)C2)o1)S(C)(=O)=O (stereo not shown) [CBK306808] | 88.2 |
| COCCC(=O)Nc1cnc(-c2ccc(F)c(Cl)c2)c(-c2cccnc2)n1 [CBK036938] | 95.2 |
| Cc1cc(C)c(S(=O)(=O)Nc2ccc(S(=O)(=O)Nc3ccc(Cl)cc3Cl)cc2)c(C)c1 [CBK266022] | 109 |
| O=C(NCc1ccccc1)c1cccc(NC(=O)c2cc(-c3ccncc3)nc3ccc(Cl)cc23)c1 [CBK267769] | 117 |
| O=[N+]([O-])c1ccc(CN2CCC(Oc3nccnc3OC3CCCCC3)CC2)cc1 [CBK082861T] | 90.4 |
| CCCC1=NNC(=O)C1Cc1c(F)cccc1Cl (stereo not shown) [CBK067753] | 88.8 |
| O=[N+]([O-])c1cccc(/C=C/C=N/c2ccc3c(c2)S(=O)(=O)c2cc(/N=C/C=C/c4cccc([N+](=O)[O-])c4)ccc2-3)c1 [CBK261244] | 97.6 |
| N#C/C(=C\c1cn(Cc2ccc(Cl)cc2Cl)nc1-c1ccccc1)c1nc2ccccc2[nH]1 [CBK262545] | 87.3 |
| COC(=O)c1ccccc1NC(=O)CSc1nnnn1C [CBK267441] | 90 |
| CCNC(=O)NC[C@H]1C[C@@H]2CCN1C[C@@H]2c1cc(-c2ccccc2OC)nn1C [CBK289105] | 118 |

| Compound | viability at 28.5 h, 10 µM [%] |
| --- | --- |
| Cc1ccc(C2CC(=O)C(=CNCCN3CCN(C(=S)Nc4ccccc4)CC3)C(=O)C2)cc1 (stereo not shown) [CBK263665] | 96.3 |
| COc1ncc(-c2cncc(N3CCN(CCO)CC3)n2)c(OC)n1 [CBK065146] | 84.8 |
| Fc1ccccc1CN(CCCn1ccnc1)Cc1ccncc1 [CBK282981] | 102 |
| O=C(CSC1c2ccccc2Oc2ccccc21)Nc1cccc(C(=O)O)c1 [CBK266566] | 97.9 |
| CN1CCN(c2nc3c([nH]2)c(=O)n(C)c(=O)n3C)CC1 [CBK269976] | 86.1 |
| CCOC(=O)c1sc(NC(=O)Nc2cccc(Cl)c2)c(C(N)=O)c1C [CBK262658] | 107 |
| COc1ncc(-c2nccnc2OC2CCCCC2)c(OC)n1 [CBK106745] | 90.8 |
| COc1ccc2c(c1)C1(CC(=O)N(Cc3ccccc3)C1=O)C(=O)N2Cc1ccccc1 (stereo not shown) [CBK075228] | 106 |
| COc1cc(CNc2cncc(-c3ccc(F)cc3F)n2)cc(OC)c1OC [CBK065826] | 115 |
| O=C(CSc1nnc(-c2ccccc2)n1-c1ccccc1)N/N=C/c1cccc2cccnc12 [CBK262863] | 91 |
| Cc1cccc(Oc2ccccc2NS(=O)(=O)c2ccc3c(c2)N(CC(=O)O)C(=O)CO3)c1 [CBK295287] | 92.1 |
| CCN(Cc1ccc(OC)c(OC)c1)C(=O)CSc1nc(CC(=O)O)cs1 [CBK296643] | 97.5 |
| Cc1cc(C(=O)NC(Cc2c[nH]c3ccccc23)C(=O)O)c(C)o1 (stereo not shown) [CBK286560] | 86.5 |
| CCCc1[nH]nc(O)c1Cc1ccc(C(F)(F)F)cc1 [CBK075014] | 88.9 |
| O=C(O)C1Cc2c([nH]c3ccccc23)C(c2cc(Br)ccc2O)N1 (stereo not shown) [CBK260946] | 88.1 |
| COc1ccc(OC(C)C(=O)Nc2ccc(C(=O)O)cc2)cc1 (stereo not shown) [CBK263622] | 101 |
| Cc1ccc(Cc2nc(-c3cccnc3)no2)cc1 [CBK288141] | 94.3 |
| NS(=O)(=O)c1ccc(CCNc2ncnc3c2c(-c2ccccc2)cn3-c2ccc(F)cc2)cc1 [CBK266478] | 92 |
| CC(C)c1csc(NC(=O)C2CN(S(=O)(=O)c3ccc(F)cc3)C2)n1 [CBK285944] | 120 |
